Laboratory results taken from patent publication US10770169B2, “Method of providing a treatment to a subject based on a dynamic pathway map” (THE REGENTS OF THE UNIVERSITY OF CALIFORNIA, priority 2010, dated 2020).

Tested on: panel of 55 breast cancer cell lines
Assay: Cell growth inhibition assay (Cell Titer Glo, 72 h, 9 doses; GI50, TGI, LC50)
Type: cell-based, human
Details: Homo sapiens

C[C@]12O[C@H](C[C@]1(O)CO)n1c3ccccc3c3c4c(c5c6ccccc6n2c5c31)CNC4=O [Lestaurtinib]
GI50 (600MPE cell line, censored GI50 values): 1700 nM
GI50 (AU565, AU565 cell line, censored GI50 values): 851 nM
GI50 (AU565, cell line AU565): 851 nM
GI50 (BT-20, BT20 cell line, censored GI50 values): 3240 nM
GI50 (BT-20, cell line BT20): 3240 nM
GI50 (BT-474, BT474 cell line, censored GI50 values): 245 nM
GI50 (BT-474, cell line BT474): 245 nM
GI50 (BT-483, BT483 cell line, censored GI50 values): 741 nM
GI50 (BT-483, cell line BT483): 741 nM
GI50 (CAMA-1, CAMA1 cell line, censored GI50 values): 2240 nM
GI50 (CAMA-1, cell line CAMA1): 2240 nM
GI50 (HCC38, cell line HCC38): 61.7 nM
GI50 (HCC70, cell line HCC70): 182 nM
GI50 (HCC1143, HCC1143 cell line, censored GI50 values): 331 nM
GI50 (HCC1143, cell line HCC1143): 331 nM
GI50 (HCC1187, HCC1187 cell line, censored GI50 values): 832 nM
GI50 (HCC1187, cell line HCC1187): 832 nM
GI50 (HCC1419, HCC1419 cell line, censored GI50 values): 1150 nM
GI50 (HCC1419, cell line HCC1419): 1150 nM
GI50 (HCC1428, HCC1428 cell line, censored GI50 values): 537 nM
GI50 (HCC1428, cell line HCC1428): 537 nM
GI50 (HCC1500, HCC1500 cell line, censored GI50 values): 158 nM
GI50 (HCC1500, cell line HCC1500): 158 nM
GI50 (HCC1806, HCC1806 cell line, censored GI50 values): 162 nM
GI50 (HCC1806, cell line HCC1806): 162 nM
GI50 (HCC1937, HCC1937 cell line, censored GI50 values): 617 nM
GI50 (HCC1937, cell line HCC1937): 617 nM
GI50 (HCC1954, HCC1954 cell line, censored GI50 values): 4900 nM
GI50 (HCC1954, cell line HCC1954): 4900 nM
GI50 (MCF7, cell line MCF7): 1410 nM
GI50 (MDA-MB-361, cell line MDAMB361): 525 nM
GI50 (MDA-MB-436, cell line MDAMB436): 1380 nM
GI50 (MDA-MB-453, cell line MDAMB453): 661 nM
GI50 (MDA-MB-468, cell line MDAMB468): 407 nM
GI50 (SK-BR-3, cell line SKBR3): 1020 nM
GI50 (SUM52PE, cell line SUM52PE): 138 nM
GI50 (SUM149PT, cell line SUM149PT): 91.2 nM
GI50 (SUM185PE, cell line SUM185PE): 63.1 nM
GI50 (SUM225CWN, cell line SUM225CWN): 1000 nM
GI50 (SUM-159-PT, cell line SUM159PT): 288 nM
GI50 (T47D, cell line T47D): 5620 nM
GI50 (UACC-812, cell line UACC812): 1050 nM
GI50 (ZR-75-1, cell line ZR751): 1780 nM
GI50 (ZR-75B, cell line ZR75B): 457 nM
GI50 (cell line 600MPE): 1700 nM
GI50 (cell line HCC2185): 3240 nM
GI50 (cell line HCC3153): 7760 nM
GI50 (cell line MDAMB134V): 363 nM
GI50 (cell line MDAMB175V): 813 nM
GI50 (cell line SUM1315MO): 37.2 nM
